Reference: patent US4618618A, “Compounds and compositions” (priority 1981, dated 1986)
Structures can show the parent of a compound that is named as a salt. Where two headings read alike, the source gives them in different places. Blank lines part the entries; values can stand above or below the compound they belong to.

Columns and labels:
[1] = Level of nitroxynil in the blood of cattle after injection (high pressure liquid chromatography)
[2] = Level of levamisole in the blood of cattle after injection (high pressure liquid chromatography)
[3] = system: Ostertagia, Trichostrongylus and Haemonchus; assay: Anthelmintic efficacy in infected sheep (parasite counts at slaughter); assay type: in vivo
Experimental: To ensure that the compounds were tested in heavily infected animals sheep harbouring a heavy naturally acquired parasitic infection were chosen and further infected with larvae of the species Ostertagia, Trichostrongylus and Haemonchus. The infections were allowed to reach maturity. […] A second group of sheep, the controls, were injected with an aqueous solution of levamisole dihydrogen phosphate at a dose rate equivalent to 6 mg of levamisole base per kilogram of animal body weight.
Half of the sheep in each group were slaughtered 7 days after treatment and the parasites in the abomasum, small intestine, large intestine and lungs were counted.

in vivo = conditions: bovine, 10 mg/kg
[4] = cited from earlier work
helminth = conditions: ruminants sheep and cattle; cited from earlier work
[5] = bovine, in vivo
liver fluke = conditions: mature and immature liver fluke; cited from earlier work
[6] = cattle, injected solution in polyethylene glycol 200 (Example 2 (a)), 17 mg of the salt/kg, each of four animals
[7] = compared with levamisole dihydrogen phosphate

Compound: c1ccc(C2CN3CCSC3=N2)cc1 (racemic) [tetramisole, D,L-2,3,5,6-Tetrahydro-6-phenylimidazo[2,1-b]thiazole]
base catalysed hydrolysis [4]: subject to base catalysed hydrolysis

Compound: c1ccc([C@H]2CN3CCSC3=N2)cc1 [levamisole, L-2,3,5,6-tetrahydro-6-phenylimidazo[2,1-b]thiazole]
activity as an anthelmintic agent relative to tetramisole (helminth): approximately twice as active as tetramisole | base catalysed hydrolysis [4]: subject to base catalysed hydrolysis

Compound: O=P(O)(O)O.c1ccc([C@H]2CN3CCSC3=N2)cc1 [levamisole dihydrogen phosphate, reference compound]
time to maximum level of levamisole in the blood ([5]; 6 mg/kg): ≤ 1 h | course of the level of levamisole in the blood (in words) ([5]; sc): quickly rises to a maximum and quickly declines | eradication of the helminth infection ([3]; sheep slaughtered 7 days after treatment, injected aqueous solution, 6 mg levamisole base/kg): either completely or essentially completely eradicated | eradication of the helminth infection ([3]; sheep slaughtered 28 days after treatment, injected aqueous solution, 6 mg levamisole base/kg): either completely or essentially completely eradicated

Compound: N#Cc1cc(I)c(O)c([N+](=O)[O-])c1 [nitroxynil, 4-cyano-2-iodo-6-nitrophenol]
activity against liver fluke (liver fluke): effective against both mature and immature liver fluke

Second part, led by results:

time to maximum level of nitroxynil in the blood [1, 6]: approximately 24 hours | rise of blood level of nitroxynil to a maximum (in words) ([1]; compared with nitroxynil N-ethyl-D-glucamine salt): much more slowly | nitroxynil levels obtained in the blood (in words) ([1]; parenteral administration): therapeutic levels | level of levamisole in the blood 4 hours after the injection, % of the maximum level ([2]; cattle, injected solution in polyethylene glycol 200 (Example 2 (a)), 17 mg of the salt/kg, 4 hours): at least 50% | time to maximum level of levamisole in the blood [2, 6]: approximately 2 hours | duration of the level of levamisole in the blood (in words) [2, 7]: maintained for a longer period of time | rise of blood level of levamisole to a maximum (in words) [2, 7]: much more slowly | rise of blood level of levamisole to a maximum (in words) ([2]; compared with levamisole dihydrogen phosphate, listed as nitroxynil salt of levamisole): more slowly | levamisole levels obtained in the blood (in words) ([2]; parenteral administration): therapeutic levels
Compound: N#Cc1cc(I)c(O)c([N+](=O)[O-])c1.c1ccc([C@H]2CN3CCSC3=N2)cc1 [Example 1, L-2,3,5,6-tetrahydro-6-phenylimidazo[2,1-b]thiazolium 4-cyano-2-iodo-6-nitrophenoxide]
eradication of the helminth infection ([3]; sheep slaughtered 7 days after treatment, injected 14.5 mg of the salt/kg in polyethylene glycol 200): either completely or essentially completely eradicated | eradication of the helminth infection ([3]; sheep slaughtered 28 days after treatment, injected 14.5 mg of the salt/kg in polyethylene glycol 200): either completely or essentially completely eradicated

Tmax (in vivo): 4 h
Compound: N#Cc1cc(I)c(O)c([N+](=O)[O-])c1 [nitroxynil N-ethyl-D-glucamine salt]
